Measured values published in US20190307771A1, “METHODS AND COMPOSITIONS FOR THE TREATMENT OF CANCER AND METABOLIC DISEASES” (THE REGENTS OF THE UNIVERSITY OF CALIFORNIA, priority 2016, published 2019).
Entries after “also recorded” stand apart in the source; their conditions may differ. Read-outs that look alike come from different tables or passages of the source.

Assays:
[1] = tested on: NUR77 and RARβ; experiment: Induction and localization of NUR77 and RARβ in HCT116 cells; format: cell-based; conditions: 48 hours, RA 10 μM, butyrate 5 mM, SAHA 5 μM, EGF 32 nM
Experimental: Proteins were immunoprecipitated by anti-NUR77 or anti-RARβ antibodies, or IgG, followed by Western blot using anti-RARβ or anti-NUR77 antibodies.
To study the effect of miR-22 in induction of cytosolic NUR77 by RA/butyrate, adenoviral-delivery of miR-22 inhibitors tagged with green fluorescence (adeno-miR-22 inhibitor-GFP, Applied Biological Materials Inc, Richond, BC) were used to infect HCT116 cells. At 48 hours post adenoviral infection, cells were treated with RA (10 μM) plus butyrate (5 mM) or DMSO for 24 hours. […] Cells were mounted in ProLong® Gold Antifade Reagent with DAPI (4′,6-diamidino-2-phenylindole, Life Technologies, Carlsbad, Calif.) and imaged under Keyence BZ-9000 microscope.

[2] = tested on: RARβ; experiment: ChIP-qPCR: RARβ binding to DR5 motif upstream of RARβ and CYP26A1 genes; format: cell-based; conditions: HCT116 cells
Experimental: (§1) NUR77 and RARβ acetylation status was also studied because protein acetylation alters nuclear receptor activity^37. […] To study the effect of RA/butyrate in modulating NUR77 and RARβ transcriptional activity, ChIP-qPCR and RT-PCR were performed to determine receptor binding to transcriptional regulatory regions and mRNA levels of downstream targets, respectively.
(§2) Chromatin immunoprecipitation (ChIP)-qPCR ChIP-qPCR was performed as described previously^21. Briefly, chromatin lysate was precleared before incubation with an anti-H3K9AC antibody (Millipore. Billerica, Mass.), anti-HDAC1 and anti-HDAC4 (Cell signaling technology, Beverly, Mass.) or anti-SIRT1 antibody (Santa Cruz Biotechnology, Santa Cruz, Calif.). IgG (Santa Cruz Biotechnology, Santa Cruz, Calif.) and RNA Polymerase II antibody (Millipore, Billerica, Mass.) were used as negative and positive controls, respectively. Samples were incubated with Dynase beads at 4° C. overnight followed by de-crosslinking and purification. DNA fragments generated served as templates for qPCR using Power SYBR1 Green PCR Master Mix.

[3] = tested on: NUR77 and RARβ; experiment: Immunoprecipitation/Western blot: protein acetylation of NUR77 and RARβ; format: cell-based; conditions: HCT116 cells; IP with anti-NUR77 or anti-RARβ, anti-acetyl lysine blot
Source text: FIG. 12A depicts the expression levels of proteins that were extracted from HCT116 cells and immunoprecipitated by anti-NUR77 and RARβ antibodies or IgG, followed by Western blot using an anti-acetyl lysine antibody. […] The mRNA levels of NUR77 target genes BRE as well as CCND2 and RARβ target genes RARβ and CYP26A1 in HCT116 cells are shown in FIG. 12C.
as §1
(§3) Western blot and immunoprecipitation were performed as described previously^22. Specific antibodies used included anti-NUR77, RARβ, SIRT1, β-actin, and IgG (Santa Cruz Biotechnology, Santa Cruz, Calif.), phospho-JNK1/2, total JNK1/2, cleaved caspase3, HDAC1 and HDAC4 (Cell Signaling Technology, Beverly, Mass.), and CCNA2 (Novus Biologicals, Littleton, Colo.). To detect protein acetylation of NUR77 and RARβ, cell lysates (500 μg) were incubated with anti-NUR77, RARβ, or IgG antibody (1 μg), precipitated by adding Dynabeads (30 μl, Life Technologies, Carlsbad, Calif.), and probed with anti-Acetyl-lysine antibody (Cell Signaling Technology, Beverly, Mass.). To study the interaction between RARβ and NUR77, whole-cell lysates were precipitated with anti-RARβ or NUR77 antibody followed by Western blot using anti-NUR77 or RARβ antibody.

[4] = tested on: RARB and NUR77 genes; experiment: ChIP-qPCR: HDAC recruitment and H3K9 acetylation at RARB and NUR77 genes in HCT116 cells; format: cell-based; conditions: RA 10 μM, butyrate 5 mM, SAHA 5 μM
Experimental: Cell lysates were used for ChIP with antibodies specific for HDAC1, HDAC4, SIRT1, or acetylated H3K9, followed by qPCR using primers specific for the RARB and NUR77 genes. DMSO treated cells and IP using IgG were included as negative controls. […]inding was expressed relative to the IgG negative controls.
as §2

[5] = tested on: HCT116 colon cancer cells; experiment: MTT cell viability assay in HCT116 cells; format: cell-based; conditions: RA 10 μM, butyrate 5 mM, SAHA 5 μM; for Cell viability: 48 hours, propionate 10 mM, valerate 10 mM, vs. DMSO
Experimental: Cell viability was monitored by MTT assay.
HCT116 cells (American Type Culture Collection) were maintained in McCoy's 5a medium from Gibco (Life Technologies, Carlsbad, Calif.) with 10% FBS. Cells were plated (1×10^6 cells per 60-mm dish, 2×10^5 cells per 6-well plates, and 1×10^5 cells per 24-well plates) overnight prior to treatment or transfection.
Cells were stained with 3-(4,5-dimethylthiazol-2-O-2,5-diphenyltetrazolium bromide (MTT, Sigma-Aldrich, St. Louis, Mo.) and measured at 570 nm with Microplate Reader (Biotek, Winooski, Vt.).

[6] = tested on: HDAC1, HDAC4, SIRT1, cyclin A2 (CCNA2); experiment: Western blot of protein deacetylases and cyclin A2 in HCT116 cells; format: cell-based; conditions: 24 hours, RA 10 μM, butyrate 5 mM, SAHA 5 μM
[7] = tested on: NUR77; experiment: ChIP-qPCR and RT-PCR: NUR77 binding to BRE and CCND2 and their mRNA; format: cell-based; conditions: HCT116 cells
Experimental: as §1, §2

[8] = tested on: miR-22; experiment: miR-22 expression in HCT116 cells (qRT-PCR); format: cell-based; conditions: 24 hours, RA 10 μM, butyrate 5 mM, propionate 10 mM, valerate 10 mM, SAHA 5 μM
Experimental: To study the effect of RA and HDAC inhibitors on miR-22 expression, HCT116 cells were treated with RA, butyrate, propionate, valerate, and SAHA. The SCFA concentrations used were within physiologic ranges^35.
(§4) Total RNA was extracted with TRIzol Reagent (Invitrogen, Carlsbad, Calif.), and cDNA was generated using High Capacity RNA-to-cDNA Kit (Applied Biosystems, Carlsbad, Calif.). qRT-PCR was performed on ABI 7900HT Fast Real time PCR system using Power SYBR® Green PCR Master Mix (Applied Biosystems, Carlsbad, Calif.).

[9] = tested on: retinoic acid receptor beta (RARβ); experiment: RARB expression in HCT116 cells (qRT-PCR); format: cell-based; conditions: 24 hours, RA 10 μM, butyrate 5 mM, SAHA 5 μM
Experimental: as §4

[10] = tested on: HCT116-generated tumors; experiment: Mouse xenograft tumor model; format: in vivo, Athymic nude mice; conditions: adenoviral miR-22 intratumorally
Experimental: Athymic nude mice (female, 6 weeks old, Jackson Laboratory) were subcutaneously injected by HCT116 cells (1×10^6) in the flank region. When tumor size reached […] of cross-sectional area, a combination of RA plus butyrate or adenoviral-expressing miR-22 (Ad-miR-22) was administered. For RA plus butyrate treatment, mice received RA (2.5 μg/g body weight) and butyrate (1.2 mg/g body weight) intraperitoneally (IP) 5 times a week for 2 weeks. For Ad-miR-22 treatment, mice received Ad-miR-22 (1×10^9 Pfu) intratumorally (IT) twice a week for 2 weeks. Control groups received 1% DMSO in PBS and adenovirus scramble, respectively. Tumor dimensions were measured and tumor volume was calculated using V (volume)=W (width)^2×L (length)/2. All experimental protocols were approved by the University of California Davis Animal Care and Use Committee.

[11] = tested on: HDAC1, HDAC4, SIRT1, cyclin A2 (CCNA2); experiment: Western blot of protein deacetylases and cyclin A2 in HCT116 cells; format: cell-based
Experimental: HCT116 cells were transfected with either an miR-22 mimic or a scramble control, and 48 hours later the protein levels of HDAC4, SIRT1, and cyclin A2 were measured (FIG. 3B). The expression of all three proteins was reduced by treatment with the miR-22 mimic.
as §3

[12] = tested on: CYCLIN A2, HDAC1, HDAC4, SIRT1; experiment: Protein levels in Huh7 liver cancer cells
[13] = tested on: miR-22; conditions: published data, cited from earlier work
[14] = tested on: Class I (HDAC1, 2, 3, and 8) and Class IIa (HDAC4, 5, 7, and 9); conditions: cited from earlier work

O=C(CCCCCCC(=O)Nc1ccccc1)NO [SAHA, suberanilohydroxamic acid]
Induction and localization of NUR77 and RARβ (immunostaining) [1]: markedly induced NUR77 and RARβ
Increase of RARβ binding to the DR5 motif upstream of RARβ and CYP26A1 genes [2]: 2.5 folds
Acetylated NUR77 and RARβ [3]: increased acetylated NUR77 and RARβ
H3K9 acetylation of NUR77 and RARβ genes (ChIP-qPCR) ([4]; 24 hours): increased H3K9 acetylation
Recruitment of HDAC1, HDAC4, and SIRT1 to the regulatory region of NUR77 and RARβ (ChIP-qPCR) ([4]; 24 hours): decreased recruitment of HDAC1, HDAC4, and SIRT1
Histone acetylation (H3K9Ac) in the gene encoding RARβ (ChIP-qPCR) [4]: increased histone acetylation
Recruitment of HDAC4 and SIRT1 to the RARB gene (ChIP-qPCR) [4]: reduced the recruitment of HDAC4 and SIRT1
Cell viability (MTT assay) ([5]; 24 hours): reduced cell viability
Cell viability [5]: significantly reduced cell viability; also recorded: Markedly reduced cell viability
Protein levels of HDAC1, HDAC4, SIRT1, and cyclin A2 (CCNA2) [6]: reduced HDAC1, HDAC4, SIRT1, and CCNA2 protein levels
NUR77 binding to BRE and CCND2 promoter regions and their mRNA levels (NUR77 transcriptional activity) [7]: reduced NUR77 binding
miR-22 expression level [8]: upregulated; also recorded: could induce miR-22; also recorded: induced; also recorded: increased miR-22 level
RARB (RARβ) expression / transcription [9]: upregulated

CCCCC(=O)O [valerate]
Cell viability [5]: Markedly reduced cell viability
miR-22 expression level [8]: induced; also recorded: increased miR-22 level

CCC(=O)[O-].[Na+] [propionate, sodium propionate]
Cell viability [5]: Markedly reduced cell viability
miR-22 expression level [8]: induced; also recorded: increased miR-22 level

miR-22: microRNA, SEQ ID NO:1 AAGCUGCCAGUUGAAGAACUGU (listed as RNA, chemistry not fully specified)
Acetylated NUR77 and RARβ [3]: increased acetylated NUR77 and RARβ
HDACs and CCNA2 protein levels in tumors [10]: silenced HDACs and CCNA2
NUR77 and RARβ protein levels in tumors [10]: upregulating NUR77 and RARβ
Colon tumor growth / tumor size ([10]; xenograft mice): inhibited colon cancer growth; also recorded: effective in inhibiting the growth of colon cancer; also recorded: remarkable effectiveness
Protein levels of HDAC1, HDAC4, SIRT1, cyclin A2 after miR-22 (mimic) transfection ([11]; HCT116 cells, 48 hours after transfection, vs. scramble control): inhibited multiple HDACs; also recorded: inhibits HDAC1, HDAC4 and SIRT1; also recorded: HDAC1 protein level was reduced; also recorded: reduced HDAC4 and SIRT1; also recorded: suppress HDAC4 and SIRT1 expression; also recorded: reduces protein deacetylases, including HDAC1
HDAC1, HDAC4, and SIRT1 levels ([12]; liver Huh7 cells treated with miR-22 mimic): inhibited multiple HDACs

C[C@H](CCC(=O)O)[C@H]1CC[C@H]2[C@@H]3[C@H](O)C[C@@H]4C[C@H](O)CC[C@]4(C)[C@H]3CC[C@]12C [CDCA, chenodeoxycholic acid]
miR-22 induction [13]: induces miR-22
miR-22 induction ([13]; listed as chenodeoxycholic acid): induce miR-22
CYCLIN A2 levels ([11]; colon HCT116 cells, CDCA treatment or miR-22 mimic transfection): reduced CYCLIN A2 levels; also recorded: repression of cyclin A2
CYCLIN A2 levels ([12]; liver Huh7 cells): reduced CYCLIN A2 levels; also recorded: repression of cyclin A2

CC(/C=C/C(=O)NO)=C\[C@@H](C)C(=O)c1ccc(N(C)C)cc1 [trichostatin A]
Inhibition of HDAC classes [14]: inhibit Class I (HDAC1, 2, 3, and 8) and Class IIa (HDAC4, 5, 7, and 9)

C=C1CC[C@H](O)C/C1=C/C=C1\CCC[C@]2(C)[C@@H]([C@H](C)CCCC(C)C)CC[C@@H]12 [vitamin D3]
miR-22 induction [13]: induce miR-22
